Where a name gives a salt, the structure may show the parent alone.
System: Aedes aegypti
Assay: Direct spray treatment (pump-sprayer), knock down and/or mortality
Assay type: in vivo
Experimental: The efficacy of a non-VOC solvent formulation of the invention was evaluated using a pump-sprayer against Culex quinquefasciatus and Aedes aegypti. The non-VOC solvent formulation of the invention comprising acetyl tributyl citrate (Formulation 1) was applied at a concentration of either 15.75 mg/ml or 31.5 mg/ml from a distance of approximately 15 cm. Controls were sprayed with water. The experiment was replicated five times and ten insects were sprayed per replicate.
Percentage knock-down and/or mortality was determined at three time points: 30 minutes following treatment; 1 hour following treatment; and 24 hours following treatment. The findings are presented below in Tables 4 and 5.
Further studies were conducted using acetyl tributyl citrate as described in Table 6.

Measured: % knock down and/or mortality of Aedes aegypti (out of 10 per replicate) after direct spray treatment

CCCCOC(=O)CC(CC(=O)OCCCC)(OC(C)=O)C(=O)OCCCC [Citroflex A-4, acetyl tributyl citrate]
100%: Many spray pushes pure Citroflex A4 (1 ml), 1 hour | Many spray pushes pure Citroflex A4 (1 ml), 24 hour mortality | One spray push Citroflex 1:1 with tap water, 1 hour | One spray push Citroflex 1:1 with tap water, 24 hour mortality | One spray push pure Citroflex A4 (1 ml), 1 hour | One spray push pure Citroflex A4 (1 ml), 24 hour mortality
